Data on 18 molecules can be found in US12172983B2, “EGFR inhibitors” (Blueprint Medicines Corporation, priority 2019, dated 2024).

The structures appear in SMILES notation. Read-outs that look alike come from different tables or passages of the source. Where only a bound is given, the exact number is not on record here.

For assay [1], the system named is phosphorylation of EGFR (Tyr1068) in NCI-H1975 cell line that harbors the EGFR L858R T790M mutations. Kind of assay: NCI-H1975 pEGFR AlphaLISA assay. The format is cell-based. The note with it: 4-5 hours incubation, read-out: Ext pEGFR H1975. Put shortly: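 NCI-H1975 cells (EGFR L858R/T790M) seeded overnight, then treated with compound for 4-5 h at 37 °C/5% CO2. After lysis, p-EGFR (Tyr1068) quantified by AlphaLISA SureFire Ultra with acceptor then donor beads; IC50 fitted from percent inhibition versus log concentration.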
On the technique in general: In Alpha technology, singlet oxygen from a donor bead excites a nearby acceptor bead.

The next assay has as its target T1, EGFR (L858R T790M C797S) (Homo sapiens, UniProt P00533, C797S/L858R/T790M).
T1 construct: purchased SignalChem E10-122VG
Nature of the assay: Biochemical EGFR inhibition assay (Caliper mobility shift), EGFR LRTMCS mutant. Conditions: inhibitory activity against EGFR LRTMCS mutant; apparent IC50; read-out: Ext Enz LRTMCS. Summed up: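 Caliper mobility shift read-out: product and substrate peptides separated by electrophoresis and quantified. Reactions at 25° C. taken to 10–20% peptide phosphorylation, quenched with 35 mM EDTA. Apparent IC50 from percent activity vs log [compound].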

[2] abbreviates: Homo sapiens, NCI-H1975, inhibition of phosphorylation of mutant EGFR in NCI-H1975 cells.

T1 sequence (P00533 25-1210 T790M/C797S/L858R): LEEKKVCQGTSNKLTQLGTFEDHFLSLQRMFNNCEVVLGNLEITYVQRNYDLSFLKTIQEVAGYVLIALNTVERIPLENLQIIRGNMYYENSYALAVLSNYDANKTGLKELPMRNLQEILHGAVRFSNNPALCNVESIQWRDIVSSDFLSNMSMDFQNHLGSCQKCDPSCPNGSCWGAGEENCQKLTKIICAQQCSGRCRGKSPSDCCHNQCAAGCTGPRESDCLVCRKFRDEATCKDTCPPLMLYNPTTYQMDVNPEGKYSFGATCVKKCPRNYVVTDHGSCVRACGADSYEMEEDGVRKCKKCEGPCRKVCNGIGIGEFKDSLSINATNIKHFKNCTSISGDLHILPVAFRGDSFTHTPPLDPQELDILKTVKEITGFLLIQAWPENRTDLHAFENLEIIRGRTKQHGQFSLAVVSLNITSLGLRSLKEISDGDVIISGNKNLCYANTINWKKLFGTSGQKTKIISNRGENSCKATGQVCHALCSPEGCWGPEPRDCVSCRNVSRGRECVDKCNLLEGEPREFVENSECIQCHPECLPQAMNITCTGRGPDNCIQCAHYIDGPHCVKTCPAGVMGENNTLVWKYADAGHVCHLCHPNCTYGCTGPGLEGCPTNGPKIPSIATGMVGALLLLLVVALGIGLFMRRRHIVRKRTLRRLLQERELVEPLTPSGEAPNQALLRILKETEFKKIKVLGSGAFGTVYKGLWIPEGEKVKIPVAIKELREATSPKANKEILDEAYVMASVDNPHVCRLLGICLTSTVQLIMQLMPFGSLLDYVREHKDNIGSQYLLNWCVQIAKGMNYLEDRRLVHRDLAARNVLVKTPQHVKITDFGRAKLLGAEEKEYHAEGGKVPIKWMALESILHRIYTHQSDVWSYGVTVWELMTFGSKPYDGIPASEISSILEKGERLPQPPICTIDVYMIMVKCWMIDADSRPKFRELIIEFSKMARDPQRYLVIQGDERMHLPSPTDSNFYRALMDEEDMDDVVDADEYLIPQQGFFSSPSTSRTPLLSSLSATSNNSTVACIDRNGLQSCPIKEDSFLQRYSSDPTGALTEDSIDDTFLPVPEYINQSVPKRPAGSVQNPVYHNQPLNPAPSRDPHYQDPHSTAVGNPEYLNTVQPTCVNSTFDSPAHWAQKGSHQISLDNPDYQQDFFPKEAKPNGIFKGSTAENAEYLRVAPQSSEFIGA

As to `CC(C)c1ccc(N2CC(CS(C)(=O)=O)C2)c2cnc(Nc3ccnc(N4CCC5(OCCO5)[C@H](F)C4)n3)cc12` (single isomer, unassigned) [Compound 181, N-{2-[(6R)-6-fluoro-1,4-dioxa-8-azaspiro[4.5]decan-8-yl]pyrimidin-4-yl}-8-[3-(methanesulfonylmethyl)azetidin-1-yl]-5-(propan-2-yl)isoquinolin-3-amine or N-{2-[(6S)-6-fluoro-1,4-dioxa-8-azaspiro[4.5]decan-8-yl]pyrimidin-4-yl}-8-[3-(methanesulfonylmethyl)azetidin-1-yl]-5-(propan-2-yl)isoquinolin-3-amine], the IC50 was 10.1 to 20 nM in assay [1] (inhibition of phosphorylation of mutant EGFR in NCI-H1975 cells) and not above 15 nM on EGFR (L858R T790M C797S).

Turning to `CCS(=O)(=O)CC1CN(c2ccc(C(C)C)c3cc(Nc4ccnc(N5C[C@@H](F)[C@@H](O)C(C)(C)C5)n4)ncc23)C1` (single isomer, unassigned) [Compound 182, (4S,5R)-1-{4-[(8-{3-[(ethanesulfonyl)methyl]azetidin-1-yl}-5-(propan-2-yl)isoquinolin-3-yl)amino]pyrimidin-2-yl}-5-fluoro-3,3-dimethylpiperidin-4-ol or (4R,5S)-1-{4-[(8-{3-[(ethanesulfonyl)methyl]azetidin-1-yl}-5-(propan-2-yl)isoquinolin-3-yl)amino]pyrimidin-2-yl}-5-fluoro-3,3-dimethylpiperidin-4-ol], the IC50 is not above 10 nM in assay [1] (setting [2]) and not above 15 nM on EGFR (L858R T790M C797S).

For `CC(C)c1ccc(N2C[C@@H](CS(C)(=O)=O)[C@@H]2C)c2cnc(Nc3ccnc(N4C[C@@H](F)[C@@H](O)C(C)(C)C4)n3)cc12` (single isomer, unassigned) [Compound 183, (4S,5R)-5-fluoro-1-[4-({8-[(2S,3R)-3-(methanesulfonylmethyl)-2-methylazetidin-1-yl]-5-(propan-2-yl)isoquinolin-3-yl}amino)pyrimidin-2-yl]-3,3-dimethylpiperidin-4-ol or (4R,5S)-5-fluoro-1-[4-({8-[(2S,3R)-3-(methanesulfonylmethyl)-2-methylazetidin-1-yl]-5-(propan-2-yl)isoquinolin-3-yl}amino)pyrimidin-2-yl]-3,3-dimethylpiperidin-4-ol], the IC50 in assay [1] (setting [2]) was not above 10 nM; on EGFR (L858R T790M C797S), 15.1 to 20 nM.

For the molecule `CC[C@@]1(F)CN(c2nccc(Nc3cc4c(C(C)C)ccc(N5C[C@H](CS(C)(=O)=O)[C@H]5C)c4cn3)n2)CC[C@@H]1O` (single isomer, unassigned) [Compound 184, (3R,4S)-3-ethyl-3-fluoro-1-[4-({8-[(2R,3S)-3-(methanesulfonylmethyl)-2-methylazetidin-1-yl]-5-(propan-2-yl)isoquinolin-3-yl}amino)pyrimidin-2-yl]piperidin-4-ol or (3S,4R)-3-ethyl-3-fluoro-1-[4-({8-[(2R,3S)-3-(methanesulfonylmethyl)-2-methylazetidin-1-yl]-5-(propan-2-yl)isoquinolin-3-yl}amino)pyrimidin-2-yl]piperidin-4-ol], the IC50 in assay [1] (setting [2]) was not above 10 nM; at EGFR (L858R T790M C797S), not above 15 nM.

For the molecule `CO[C@@H]1CCN(c2nccc(Nc3cc4c(C(C)C)ccc(N5C[C@H](CS(C)(=O)=O)[C@H]5C)c4cn3)n2)C[C@]1(C)F` (single isomer, unassigned) [Compound 185], the IC50 is not above 10 nM in assay [1] (setting [2]) and 20.1 to 30 nM at EGFR (L858R T790M C797S).

On to `CCS(=O)(=O)C[C@H]1CN(c2ccc(C(C)C)c3cc(Nc4ccnc(N5CC[C@@](C)(O)[C@@H](F)C5)n4)ncc23)[C@@H]1C` (single isomer, unassigned) [Compound 186], for which the IC50 in assay [1] (setting [2]) is not above 10 nM; on EGFR (L858R T790M C797S), not above 15 nM.

For the molecule `CCS(=O)(=O)C[C@H]1CN(c2ccc(C(C)C)c3cc(Nc4ccnc(N5CC[C@](C)(O)[C@H](F)C5)n4)ncc23)[C@@H]1C` (single isomer, unassigned) [Compound 187], the figures for the IC50 (in assay [1] (setting [2]); on EGFR (L858R T790M C797S)) were 10.1 to 20 nM and 30.1 to 100 nM, respectively.

With `CC(C)c1cnc(N2CC(CS(=O)(=O)C(C)C)C2)c2cnc(Nc3ccnc(N4CC[C@@H](O)[C@@](C)(F)C4)n3)cc12` (single isomer, unassigned) [Compound 188], the IC50 in assay [1] (setting [2]) was not above 10 nM; at EGFR (L858R T790M C797S), not above 15 nM.

Take `CCS(=O)(=O)C[C@@H]1CN(c2ncc(C(C)C)c3cc(Nc4ccnc(N5CC[C@@H](O)[C@@](C)(F)C5)n4)ncc23)[C@H]1C` (single isomer, unassigned) [Compound 189]: the IC50 in assay [1] (setting [2]) is not above 10 nM; on EGFR (L858R T790M C797S) it was not above 15 nM.

Turning to `CCS(=O)(=O)C[C@H]1CN(c2ncc(C(C)C)c3cc(Nc4ccnc(N5CC[C@@](C)(O)[C@@H](F)C5)n4)ncc23)[C@@H]1C` (single isomer, unassigned) [Compound 190], the IC50 in assay [1] (setting [2]) was not above 10 nM; at EGFR (L858R T790M C797S), not above 15 nM.

On to `CCS(=O)(=O)C[C@H]1CN(c2ncc(C(C)C)c3cc(Nc4ccnc(N5CC[C@](C)(O)[C@H](F)C5)n4)ncc23)[C@@H]1C` (single isomer, unassigned) [Compound 191], for which the values for the IC50 (in assay [1] (setting [2]); at EGFR (L858R T790M C797S)) were not above 10 nM and not above 15 nM, respectively.

For the molecule `CN(C)CCS(=O)(=O)CC1CN(c2cccc3cc(Nc4ccnc(N5C[C@@H](F)[C@@H](O)C(C)(C)C5)n4)ncc23)C1` (single isomer, unassigned) [Compound 192, (4S,5R)-1-(4-{[8-(3-{[2-(dimethylamino)ethanesulfonyl]methyl}azetidin-1-yl)isoquinolin-3-yl]amino}pyrimidin-2-yl)-5-fluoro-3,3-dimethylpiperidin-4-ol or (4R,5S)-1-(4-{[8-(3-{[2-(dimethylamino)ethanesulfonyl]methyl}azetidin-1-yl)isoquinolin-3-yl]amino}pyrimidin-2-yl)-5-fluoro-3,3-dimethylpiperidin-4-ol], the IC50 is 10.1 to 20 nM in assay [1] (setting [2]) and not above 15 nM on EGFR (L858R T790M C797S).

With `CO[C@@H]1CCN(c2nccc(Nc3cc4c(C(C)C)ccc(N5CC([C@H](CN)S(C)(=O)=O)C5)c4cn3)n2)C[C@@H]1F` (single isomer, unassigned) [Compound 193, 8-{3-[(1R)-2-amino-1-methanesulfonylethyl]azetidin-1-yl}-N-{2-[(3S,4R)-3-fluoro-4-methoxypiperidin-1-yl]pyrimidin-4-yl}-5-(propan-2-yl)isoquinolin-3-amine or 8-{3-[(1S)-2-amino-1-methanesulfonylethyl]azetidin-1-yl}-N-{2-[(3S,4R)-3-fluoro-4-methoxypiperidin-1-yl]pyrimidin-4-yl}-5-(propan-2-yl)isoquinolin-3-amine], the IC50 in assay [1] (setting [2]) is not above 10 nM; on EGFR (L858R T790M C797S), not above 15 nM.

Consider `CCS(=O)(=O)C[C@H]1CN(c2cnc(C(C)C)c3cc(Nc4ccnc(N5CC[C@@](C)(O)[C@@H](F)C5)n4)ncc23)[C@@H]1C` (single isomer, unassigned) [Compound 194], for which the IC50 was not above 10 nM in assay [1] (setting [2]) and not above 15 nM on EGFR (L858R T790M C797S).

As to `CCS(=O)(=O)C[C@H]1CN(c2cnc(C(C)C)c3cc(Nc4ccnc(N5CC[C@](C)(O)[C@H](F)C5)n4)ncc23)[C@@H]1C` (single isomer, unassigned) [Compound 195], the results for the IC50 (in assay [1] (setting [2]); at EGFR (L858R T790M C797S)) were not above 10 nM and not above 15 nM, respectively.

As for `C[C@H](CO)c1ccc(N2C[C@@H](CS(C)(=O)=O)[C@@H]2C)c2cnc(Nc3ccnc(N4CC[C@@H](O)[C@@](C)(F)C4)n3)cc12` (single isomer, unassigned) [Compound 196, (3S,4R)-3-fluoro-1-[4-({5-[(2S)-1-hydroxypropan-2-yl]-8-[(2S,3R)-3-(methanesulfonylmethyl)-2-methylazetidin-1-yl]isoquinolin-3-yl}amino)pyrimidin-2-yl]-3-methylpiperidin-4-ol or (3S,4R)-3-fluoro-1-[4-({5-[(2R)-1-hydroxypropan-2-yl]-8-[(2S,3R)-3-(methanesulfonylmethyl)-2-methylazetidin-1-yl]isoquinolin-3-yl}amino)pyrimidin-2-yl]-3-methylpiperidin-4-ol], the results for the IC50 (in assay [1] (setting [2]); at EGFR (L858R T790M C797S)) were 10.1 to 20 nM and not above 15 nM, respectively.

Turning to `C[C@H](CO)c1ccc(N2C[C@H](CS(C)(=O)=O)[C@H]2C)c2cnc(Nc3ccnc(N4CC[C@](C)(O)[C@H](F)C4)n3)cc12` (single isomer, unassigned) [Compound 197, (3R,4S)-3-fluoro-1-[4-({5-[(2S)-1-hydroxypropan-2-yl]-8-[(2R,3S)-3-(methanesulfonylmethyl)-2-methylazetidin-1-yl]isoquinolin-3-yl}amino)pyrimidin-2-yl]-4-methylpiperidin-4-ol or (3R,4S)-3-fluoro-1-[4-({5-[(2R)-1-hydroxypropan-2-yl]-8-[(2R,3S)-3-(methanesulfonylmethyl)-2-methylazetidin-1-yl]isoquinolin-3-yl}amino)pyrimidin-2-yl]-4-methylpiperidin-4-ol], the results for the IC50 (in assay [1] (setting [2]); on EGFR (L858R T790M C797S)) were 30.1 to 50 nM and not above 15 nM, respectively.

In the case of `C[C@H](CO)c1ccc(N2C[C@H](CS(C)(=O)=O)[C@H]2C)c2cnc(Nc3ccnc(N4CC[C@@](C)(O)[C@@H](F)C4)n3)cc12` (single isomer, unassigned) [Compound 199, (3S,4R)-3-fluoro-1-(4-(5-((S)-1-hydroxypropan-2-yl)-8-((2R,3S)-2-methyl-3-(methylsulfonylmethyl)azetidin-1-yl)isoquinolin-3-ylamino)pyrimidin-2-yl)-4-methylpiperidin-4-ol or (3S,4R)-3-fluoro-1-(4-((5-((R)-1-hydroxypropan-2-yl)-8-((2R,3S)-2-methyl-3-((methylsulfonyl)methyl)azetidin-1-yl)isoquinolin-3-yl)amino)pyrimidin-2-yl)-4-methylpiperidin-4-ol], the IC50 in assay [1] (setting [2]) is 10.1 to 20 nM; at EGFR (L858R T790M C797S), not above 15 nM.
